Reference: article PMC4703981, “Autophosphorylation at Thr279 of Entamoeba histolytica atypical kinase EhAK1 is required for activity and regulation of erythrophagocytosis” (Scientific Reports, 2016)

Molecular target: T1, EhAK1 (Entamoeba histolytica, UniProt C4M9G9)
T1 construct: gene EHI_105830
Conditions: maximal quench on ATP titration, no affinity constant

T1 sequence (C4M9G9 entry or part of it): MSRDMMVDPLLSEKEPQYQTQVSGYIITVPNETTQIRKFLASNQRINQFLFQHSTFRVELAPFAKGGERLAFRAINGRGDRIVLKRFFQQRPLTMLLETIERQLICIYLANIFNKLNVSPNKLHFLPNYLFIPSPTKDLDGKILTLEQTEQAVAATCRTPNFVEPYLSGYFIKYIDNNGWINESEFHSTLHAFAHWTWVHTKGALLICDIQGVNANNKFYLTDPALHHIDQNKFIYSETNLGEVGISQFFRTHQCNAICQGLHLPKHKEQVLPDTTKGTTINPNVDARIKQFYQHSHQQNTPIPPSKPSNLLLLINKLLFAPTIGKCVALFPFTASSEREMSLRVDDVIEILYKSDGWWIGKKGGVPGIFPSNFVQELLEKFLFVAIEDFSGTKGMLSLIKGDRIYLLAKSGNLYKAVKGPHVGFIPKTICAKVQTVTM

Nc1ncnc2c1ncn2[C@@H]1O[C@H](COP(=O)(O)OP(=O)(O)OP(=O)(O)O)[C@@H](O)[C@H]1O [ATP]
% decrease in Trp fluorescence: 76%
